Laboratory results published in patent publication US20230276831A1, “Food/Beverage Article” (Kikkoman Corporation, priority 2020, published 2023).

Assays:
Assay type in all cases: cell-based
[1] = tested on: Lactobacillus rennini DSM 20253; assay: Antimicrobial action of licoricidin in liquid seasoning (1), lactic acid bacteria A; settings: conclusion of Test Example 4; various salt concentration and various alcohol concentrations; lactic acid bacteria A to D
Description: Commercially available whole soybean soy sauce (produced by Kikkoman Corporation) was electrodialyzed and then concentrated under reduced pressure to obtain soy sauce at a salt concentration of 0% (w/v) and an alcohol concentration of 0% (v/v). Then, salt and/or alcohol was added to the above-mentioned obtained soy sauce, and the mixture was heat-treated to produce soy sauces at salt concentrations and alcohol concentrations shown in the following Table 5. The pHs of the soy sauces were 4.9 to 5.0. […]
Licoricidin (produced by ChemFaces) was added to each of the liquid seasonings produced in the above-mentioned (1) to concentrations of 1 ppm, 5 ppm, 10 ppm, 25 ppm, and 50 ppm. Lactic acid bacteria described in the following Table 9 were then added to 10^6 to 10^7 cells/mL and cultured at 30° C. for 7 days. After the culture, the number of lactic acid bacteria was measured using the GAM agar medium “Nissui”. Liquid seasoning to which licoricidin was not added was used as a control group, and the antimicrobial activity was evaluated in comparison with the number of lactic acid bacteria in the control group. The evaluation was performed using the criterion shown below. […]

[2] = tested on: Lactobacillus rennini (DSM 20253); assay: Antimicrobial action of licoricidin in liquid dressing, lightly-pickled vegetables and cooking vinegar (Test Example 9); settings: conclusion of Test Example 9
Excerpt: Specifically, Koikuchi soy sauce (produced by Kikkoman Corporation), table vinegar, mirin, granulated sugar, kelp stock, and water were blended in amounts shown in the following Table 24, and the resulting mixture was heated to produce liquid dressing. The salt concentration of the obtained liquid dressing was 2.6% (w/v), the alcohol concentration was 0.8% (v/v), the pH was 4.2.
Specifically, Usukuchi soy sauce (produced by Kikkoman Corporation), table vinegar, corn syrup, isomerized sugar, salt, granulated sugar, sodium glutamate (MSG), lemon fruit juice, kelp stock, and water were blended in amounts shown in the following Table 25, and the mixture was heated to produce seasoning liquid for lightly-pickled vegetables. Chinese cabbages were fully soaked therein to produce lightly-pickled vegetables. […]
Licoricidin (produced by ChemFaces) was added to each of the above-mentioned produced liquid dressing, lightly-pickled vegetables, and cooking vinegar to concentrations of 1 ppm, 5 ppm, 10 ppm, 25 ppm, and 50 ppm. […] After the culture, the number of lactic acid bacteria was measured using the GAM agar medium “Nissui”. The liquid dressing, the lightly-pickled vegetables, and the cooking vinegar to which licoricidin was not added were used as respective control groups, and the antimicrobial activity was evaluated in comparison with the number of lactic acid bacteria in the control group. […]

[3] = tested on: Lactobacillus rennini (DSM 20253); assay: Antimicrobial action of oxygen-containing heterocyclic compounds in soy sauce (Test Example 6); settings: Loigolactobacillus rennini, DSM20253, 168 h, salt 4% (w/v), alcohol 5% (v/v)
Description: Commercially available whole soybean soy sauce (produced by Kikkoman Corporation) was electrodialyzed and then concentrated under reduced pressure to produce soy sauce at a salt concentration of 0% (w/v) and an alcohol concentration of 0% (v/v). Then, salt and/or alcohol was added to the above-mentioned obtained soy sauce, and the mixture was then heat-treated to produce soy sauce at a salt concentration of 4% (w/v) and an alcohol concentration of 5% (v/v).
The test substance described in Table 20 was added to the above-mentioned produced soy sauce to concentrations of 1 to 100 ppm. Lactic acid bacteria (Lactobacillus rennini (DSM 20253)) were then added to 10^6 to 10^7 cells/mL and cultured at 30° C. for 7 days. After the culture, the number of lactic acid bacteria was measured using the GAM agar medium “Nissui”. Soy sauce to which licoricidin was not added was used as a control group, and the antimicrobial activity was evaluated in comparison with the number of lactic acid bacteria in the control group. The evaluation was performed using the criterion shown below.
• A: The bacterial count decreases to less than 10% of the bacterial count of the control group. • B: The bacterial count decreases to 10% or more and less than 50% of the bacterial count of control group. • C: The bacterial count decreases to 50% or more and less than 100% of the bacterial count of the control group. • D: The bacterial count is the same as the bacterial count of the control group. • -: Not evaluated

COc1c(CC=C(C)C)c(O)cc2c1C[C@H](c1ccc(O)c(CC=C(C)C)c1O)CO2 [Licoricidin, 4-[(R)-7-hydroxy-5-methoxy-6-(3-methyl-2-butenyl)chroman-3-yl]-2-(3-methyl-2-butenyl)-1,3-benzenediol]
Antimicrobial activity to various lactic acid bacteria [1]: exhibited antimicrobial activity
Antimicrobial activity to lactic acid bacteria in the various liquid seasonings and the food [2]: exhibited antimicrobial activity
activity at 5 ppm ([3]; test substance 5 ppm): < 10%
activity at 10 ppm ([3]; test substance 10 ppm): < 10%
activity at 25 ppm ([3]; test substance 25 ppm): < 10%
activity at 50 ppm ([3]; test substance 50 ppm): < 10%
